In one experiment the target is T1, Human M4 (Homo sapiens, UniProt P08173).
T1 construct: expressed in transfected cells; host or cells: CHO-K1 (ATCC), stably co-expressing chimeric G protein Gqi5
T1 sequence (P08173 1-479): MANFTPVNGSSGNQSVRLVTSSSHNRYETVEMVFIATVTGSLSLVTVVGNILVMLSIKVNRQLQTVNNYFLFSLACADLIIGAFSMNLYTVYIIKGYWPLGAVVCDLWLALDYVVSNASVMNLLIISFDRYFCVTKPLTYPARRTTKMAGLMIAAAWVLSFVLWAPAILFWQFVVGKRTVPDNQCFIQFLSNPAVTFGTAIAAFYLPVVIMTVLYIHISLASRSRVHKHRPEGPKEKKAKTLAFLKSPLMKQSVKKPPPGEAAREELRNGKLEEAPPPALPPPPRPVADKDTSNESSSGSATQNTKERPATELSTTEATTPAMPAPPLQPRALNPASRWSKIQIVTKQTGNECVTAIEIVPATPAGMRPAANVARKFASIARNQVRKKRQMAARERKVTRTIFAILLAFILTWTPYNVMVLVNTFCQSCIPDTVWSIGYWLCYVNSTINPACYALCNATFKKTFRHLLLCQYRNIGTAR
Briefly: mAChR M4 cell-based functional assay (calcium flux, antagonist mode vs EC80 acetylcholine), human M4/Gqi5/CHO-K1 cells. To be noted: for remaining activity at 30 µM: CHO-K1, % ACh maximum at 30 μM, human M4, read-out: Human M4 Emin (%); for pIC50: decrease of response elicited by EC80 acetylcholine, human M4/Gqi5 CHO-K1 cells. As for the experimental part: (§1) Human or rat M4 cDNA, along with the chimeric G protein Gqi5, were transfected into Chinese hamster ovary (CHO-K1) cells purchased from the American Type Culture Collection using Lipofectamine2000. M4/Gqi5/CHO cells were grown in Ham's F-12 medium containing 10% heat-inactivated fetal bovine serum (FBS), 20 mM HEPES, 500 μg/mL G418 sulfate, and 200 μg/mL Hygromycin B.
(§2) For high throughput measurement of agonist-evoked increases in intracellular calcium, CHO-K1 cells stably expressing muscarinic receptors were plated in growth medium lacking G418 and hygromycin at 15,000 cells/20 μL/well in Greiner 384-well black-walled, tissue culture (TC)-treated, clear-bottom plates (VWR). Cells were incubated overnight at 37° C. and 5% CO2. The next day, cells were washed using an ELX 405 (BioTek) with assay buffer; the final volume was then aspirated to 20 μL. Next, 20 μL of a 2.3 μM stock of Fluo-4/acetoxymethyl ester (Invitrogen, Carlsbad, Calif.), prepared as a 2.3 mM stock in DMSO and mixed in a 1:1 ratio with 10% (w/v) Pluronic F-127 and diluted in assay buffer, was added to the wells and the cell plates were incubated for 50 min at 37° C. and 5% CO2. Dye was removed by washing with the ELX 405 and the final volume was aspirated to 20 μL. Compound master plates were formatted in a 10 point concentration-response curve (CRC) format (1:3 dilutions) in 100% DMSO with a starting concentration of 10 or 1 mM using a BRAVO liquid handler (Agilent). Test compound CRCs were then transferred to daughter plates (240 nL) using the Echo acoustic plate reformatter (Labcyte, Sunnyvale, Calif.) and then diluted into assay buffer (40 μL) to a 2× stock using a Thermo Fisher Combi (Thermo Fisher Scientific, Waltham, Mass.).
(§3) Calcium flux was measured using the Functional Drug Screening System (FDSS) 6000 or 7000 (Hamamatsu Corporation, Tokyo, Japan) as an increase in the fluorescent static ratio. Compounds were applied to cells (20 μL, 2×) using the automated system of the FDSS at 2 seconds into the protocol and the data were collected at 1 Hz. At 143 s, 10 μL of an EC20 concentration of the muscarinic receptor agonist acetylcholine was added (5×), followed by the addition of 12 μL of an EC80 concentration of acetylcholine at the 268 s time point (5×). Agonist activity was analyzed as a concentration-dependent increase in calcium mobilization upon compound addition. Positive allosteric modulator activity was analyzed as a concentration-dependent increase in the EC20 acetylcholine response. Antagonist activity was analyzed as a concentration-dependent decrease in the EC80 acetylcholine response; for the purposes of the tables herein, an IC50 (inhibitory concentration 50) was calculated as a concentration-dependent decrease of the response elicited by an EC80 concentration of acetylcholine. Concentration-response curves were generated using a four-parameter logistical equation in XLFit curve fitting software (IDBS, Bridgewater, N.J.) for Excel (Microsoft, Redmond, Wash.) or Prism (GraphPad Software, Inc., San Diego, Calif.) or the Dotmatics software platform (Dotmatics, Bishop's Stortford, UK).
(§4) Compounds were synthesized as described above. Activity (IC50 and Emin) was determined in the mAChR M4 cell-based functional assay as described above and the data are shown in Table 2.
In general terms: Calcium assays in cells follow changes in intracellular calcium, usually with a dye or a luminescent sensor.

The target of another experiment is T2, Rat M4 (Rattus norvegicus, UniProt P08485).
T2 construct: expressed in transfected cells; host or cells: CHO-K1 (ATCC), stably co-expressing chimeric G protein Gqi5
T2 sequence (P08485 1-478): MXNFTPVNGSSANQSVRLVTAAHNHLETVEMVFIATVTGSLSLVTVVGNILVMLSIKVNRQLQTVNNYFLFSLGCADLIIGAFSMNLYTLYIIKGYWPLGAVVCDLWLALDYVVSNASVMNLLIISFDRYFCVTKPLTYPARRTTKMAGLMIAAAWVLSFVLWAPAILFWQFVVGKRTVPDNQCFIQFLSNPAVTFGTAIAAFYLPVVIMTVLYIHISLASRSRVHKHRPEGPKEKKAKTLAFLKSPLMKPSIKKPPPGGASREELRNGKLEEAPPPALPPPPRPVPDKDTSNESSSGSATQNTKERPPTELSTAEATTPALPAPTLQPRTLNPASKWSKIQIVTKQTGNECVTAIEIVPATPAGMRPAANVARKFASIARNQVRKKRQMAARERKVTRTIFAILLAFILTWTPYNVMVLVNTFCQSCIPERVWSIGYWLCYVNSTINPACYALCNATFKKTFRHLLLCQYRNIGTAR
Briefly: mAChR M4 cell-based functional assay (calcium flux, antagonist mode vs EC80 acetylcholine), rat M4/Gqi5/CHO-K1 cells. To be noted: for remaining activity at 30 µM: CHO-K1, % ACh maximum at 30 μM, rat M4, read-out: Rat M4 Emin (%); for pIC50: decrease of response elicited by EC80 acetylcholine, rat M4/Gqi5 CHO-K1 cells. As for the experimental part:
as §1, §2, §3, §4

pIC50: −log10 of the molar value.

Take `O=C(Nc1cc(F)ccc1Cl)c1ccc(N[C@H]2C[C@@H]3CN(CC4CCOCC4)C[C@@H]3C2)nn1` [compound 11, N-(2-chloro-5-fluorophenyl)-6-(((3aR,5s,6aS)-2-((tetrahydro-2H-pyran-4-yl)methyl)octahydrocyclopenta[c]pyrrol-5-yl)amino)pyridazine-3-carboxamide]: the remaining activity at 30 µM at Human M4 is 4%; at Rat M4, 29%. For the same compound, the pIC50 (usually the IC50 on a negative log10 scale, so that one unit is a factor of ten) was 5.69 on Human M4 and less than 5.00 at Rat M4.

For the compound `Fc1ccc(Cl)c(-c2ccc(N[C@H]3C[C@@H]4CN(C5CCCCC5)C[C@@H]4C3)nn2)c1` [compound 12, (3aR,5s,6aS)-N-(6-(2-chloro-5-fluorophenyl)pyridazin-3-yl)-2-cyclohexyloctahydrocyclopenta[c]pyrrol-5-amine], at Human M4, the remaining activity at 30 µM was found to be 4% and the pIC50 is 8.55. Also, on Rat M4, the remaining activity at 30 µM worked out at 5% and the pIC50 is 6.35.

As for `Fc1ccc(Cl)c(-c2ccc(N[C@H]3C[C@@H]4CN(C5CCCOC5)C[C@@H]4C3)nn2)c1` (stereo partly drawn) [compound 13, (3aR,5s,6aS)-N-(6-(2-chloro-5-fluorophenyl)pyridazin-3-yl)-2-(tetrahydro-2H-pyran-3-yl)octahydrocyclopenta[c]pyrrol-5-amine], at Human M4, the remaining activity at 30 µM turned out to be 3% and the pIC50 is 7.10. Also, on Rat M4, the remaining activity at 30 µM turned out to be 17% and the pIC50 was 5.85.

As to `Fc1ccc(Cl)c(-c2ccc(N[C@H]3C[C@@H]4CN(C5COC5)C[C@@H]4C3)nn2)c1` [compound 14, (3aR,5s,6aS)-N-(6-(2-chloro-5-fluorophenyl)pyridazin-3-yl)-2-(oxetan-3-yl)octahydrocyclopenta[c]pyrrol-5-amine], on Human M4, the remaining activity at 30 µM was found to be 21% and the pIC50 was 5.30. For the same compound, on Rat M4, the remaining activity at 30 µM turned out to be 51% and the pIC50 was less than 5.00.

As to `Fc1ccc(Cl)c(-c2ccc(N[C@H]3C[C@@H]4CN(C5CCSCC5)C[C@@H]4C3)nn2)c1` [compound 15, (3aR,5s,6aS)-N-(6-(2-chloro-5-fluorophenyl)pyridazin-3-yl)-2-(tetrahydro-2H-thiopyran-4-yl)octahydrocyclopenta[c]pyrrol-5-amine], the remaining activity at 30 µM came to 7% on Human M4 and 5% on Rat M4. Further, the pIC50 at Human M4 is 7.99; at Rat M4, 6.05.

As to `CC1(C)CC(N2C[C@H]3C[C@H](Nc4ccc(-c5cc(F)ccc5Cl)nn4)C[C@H]3C2)CCO1` (stereo partly drawn) [compound 16, (3aR,5s,6aS)-N-(6-(2-chloro-5-fluorophenyl)pyridazin-3-yl)-2-(2,2-dimethyltetrahydro-2H-pyran-4-yl)octahydrocyclopenta[c]pyrrol-5-amine], on Human M4, the remaining activity at 30 µM is 4% and the pIC50 was 8.72. For the same compound, on Rat M4, the remaining activity at 30 µM turned out to be 4% and the pIC50 was 7.01.

Turning to `CC1(C)CC(N2C[C@H]3C[C@H](Nc4ccc(-c5cc(F)ccc5Cl)nn4)C[C@H]3C2)CC(C)(C)O1` [compound 18, (3aR,5s,6aS)-N-(6-(2-chloro-5-fluorophenyl)pyridazin-3-yl)-2-(2,2,6,6-tetramethyltetrahydro-2H-pyran-4-yl)octahydrocyclopenta[c]pyrrol-5-amine], at Human M4, the remaining activity at 30 µM was 4% and the pIC50 was 7.82. Also, on Rat M4, the remaining activity at 30 µM worked out at 4% and the pIC50 was 6.29.

Consider `CC(=O)Nc1ccc(-c2ccc(N[C@H]3C[C@@H]4CN(C5CCOC(C)(C)C5)C[C@@H]4C3)nn2)cc1` (stereo partly drawn) [compound 20, N-(4-(6-(((3aR,5s,6aS)-2-(2,2-dimethyltetrahydro-2H-pyran-4-yl)octahydrocyclopenta[c]pyrrol-5-yl)amino)pyridazin-3-yl)phenyl)acetamide], for which, at Human M4, the remaining activity at 30 µM is 3% and the pIC50 is 7.73. For the same compound, on Rat M4, the remaining activity at 30 µM worked out at 4% and the pIC50 is 6.89.

For `CC1(C)CC(N2C[C@H]3C[C@H](Nc4ccc(-c5ccc6nccn6c5)nn4)C[C@H]3C2)CCO1` (stereo partly drawn) [compound 21, (3aR,5s,6aS)-2-(2,2-dimethyltetrahydro-2H-pyran-4-yl)-N-(6-(imidazo[1,2-a]pyridin-6-yl)pyridazin-3-yl)octahydrocyclopenta[c]pyrrol-5-amine], at Human M4, the remaining activity at 30 µM was found to be 7% and the pIC50 was 7.44. At Rat M4, the remaining activity at 30 µM came to 8% and the pIC50 was 6.09.

With `Cc1nn(C)cc1-c1ccc(N[C@H]2C[C@@H]3CN(C4CCOC(C)(C)C4)C[C@@H]3C2)nn1` (stereo partly drawn) [compound 22, (3aR,5s,6aS)-N-(6-(1,3-dimethyl-1H-pyrazol-4-yl)pyridazin-3-yl)-2-(2,2-dimethyltetrahydro-2H-pyran-4-yl)octahydrocyclopenta[c]pyrrol-5-amine], the remaining activity at 30 µM turned out to be 6% on Human M4 and 11% on Rat M4. For the same compound, the pIC50 was 8.34 on Human M4 and 5.19 on Rat M4.

Regarding `O=S(=O)(c1ccccc1)c1ccc(N[C@H]2C[C@@H]3CN(CC4CCOCC4)C[C@@H]3C2)nn1` [compound 23, (3aR,5s,6aS)-N-(6-(phenylsulfonyl)pyridazin-3-yl)-2-((tetrahydro-2H-pyran-4-yl)methyl)octahydrocyclopenta[c]pyrrol-5-amine], on Human M4, the remaining activity at 30 µM was found to be 4% and the pIC50 was 7.18. At Rat M4, the remaining activity at 30 µM was found to be 11% and the pIC50 was 5.82.

As to `Cc1cc(CN2C[C@H]3C[C@H](Nc4ccc(S(=O)(=O)c5ccccc5)nn4)C[C@H]3C2)nn1C` [compound 24, (3aR,5s,6aS)-2-((1,5-dimethyl-1H-pyrazol-3-yl)methyl)-N-(6-(phenylsulfonyl)pyridazin-3-yl)octahydrocyclopenta[c]pyrrol-5-amine], at Human M4, the remaining activity at 30 µM is 8% and the pIC50 is 6.04. Besides, on Rat M4, the remaining activity at 30 µM is 35% and the negative-log IC50 (pIC50) is less than 5.00.

For the origin of these results see US20230183218A1, “CONDENSED SUBSTITUTED HYDROPYRROLES AS ANTAGONISTS OF THE MUSCARINIC ACETYLCHOLINE RECEPTOR M4” (Vanderbilt University, priority 2020, published 2023).
